In series [1] the test system is Aβ-40 and Aβ-42 production. The experiment in a line: Inhibitory effect on Aβ-40 and Aβ-42 production in rat primary cultured cell (Aβ ELISA of culture medium). It is filed as cell-based. To be noted: 72 hr, rat cerebral cortex primary culture. As to the method: Cerebral cortex was obtained from 19-20 day-old embryonic Wistar rat. The tissue was minced, dissociated using scalpel blades and Pasteur pipette in Hunks buffered solution, and centrifuged at 100 rpm. Precipitated cells were filtered using […] cell strainer, and single cells were prepared. These cells were suspended in Eagle's Minimum Essential Medium (EMEM) containing 10% Fetal bovine serum, and plated into 48-well tissue culture plates (Becton Dickinson) at 200 μL/well and 1.7×10^5 cells/cm^2. Cultures were incubated at 37° C. in a humidified atmosphere of 5% CO2. After 3, 5, and 7 days in culture, the medium was replaced, and after 9 days, CU532 was dissolved in DMSO and diluted in culture media so that the final concentration of DMSO in culture media was 0.1%, and each solution was added to each well at […] for 72 hr. The control solution contained 0.1% DMSO.
After 72 hr, Aβ-40 and Aβ-42 in culture media were measured using by Aβ ELISA kit (Wako). 100 μL of the culture medium and standard diluents were added to the antibody-coated plate, and incubated at 4° C. over night. Then the plate was washed by wash buffer 5 times and 100 μL of HRP-labeled detection antibody solution was added to the plate. After 1 hour, the plate was washed 5 times, and TMB chromogenic reagent was added to the plate. After 30 minute, stop solution was added and absorbance at 450 nm of the solution was measured by microplate reader (BIORAD). The concentration of Aβ in culture medium was calculated from the standard curve.
For orientation: An ELISA detects its analyte on a solid surface through an enzyme-linked reagent.

Series [2] deals with T1, recombinant human β-secretase (rhBACE-1) (Homo sapiens, UniProt P56817).
T1 construct: purchased Invitrogen
Kind of series: Measurement of 50% inhibition concentration (IC50) of β-secretase (BACE-1) enzyme, fluorescent substrate peptide. The note with it: rhBACE-1, pH 4.5, 37° C., 2.5 hr. It is filed as biochemical. As to the method: Compounds were dissolved in 0.1 M sodium acetate buffer (with 150 mM sodium chloride, pH 4.5) and 10% dimethylsulfoxide (DMSO). The solution with no compound was used as a negative control. Then, 15 μL of these solutions (final compound concentration: 0.3, 0.9, 3.0, 9.0, and 30.0 μM), 1 unit/mL of recombinant human β-secretase (rhBACE-1, Invitrogen), and 15 μL of the fluorescent substrate peptide were mixed in a black 384-well microtiter plate (Coaster). After mixtures were incubated in the dark at 37° C. for 2.5 hr, the fluorescence intensities of the mixtures were measured by fluorescence microplate reader (Wallac) at 545 nm for excitation and at 590 nm for emission. The inhibition ratio of each compound was calculated using the intensity of the solution without any compound as a negative control. The sequence of the peptide was Ser-Glu-Val-Asn-Leu-Asp-Ala-Glu-Lys-Arg, and labeled with fluorescent donor (Cy3) at Ser-1 and with quencher (Cy5Q) at Lys-9, respectively (Invitrogen) Inhibitory activities of each compound are shown in FIG. 1.

Each structure is given as a SMILES string.

T1 sequence (P56817 46-501): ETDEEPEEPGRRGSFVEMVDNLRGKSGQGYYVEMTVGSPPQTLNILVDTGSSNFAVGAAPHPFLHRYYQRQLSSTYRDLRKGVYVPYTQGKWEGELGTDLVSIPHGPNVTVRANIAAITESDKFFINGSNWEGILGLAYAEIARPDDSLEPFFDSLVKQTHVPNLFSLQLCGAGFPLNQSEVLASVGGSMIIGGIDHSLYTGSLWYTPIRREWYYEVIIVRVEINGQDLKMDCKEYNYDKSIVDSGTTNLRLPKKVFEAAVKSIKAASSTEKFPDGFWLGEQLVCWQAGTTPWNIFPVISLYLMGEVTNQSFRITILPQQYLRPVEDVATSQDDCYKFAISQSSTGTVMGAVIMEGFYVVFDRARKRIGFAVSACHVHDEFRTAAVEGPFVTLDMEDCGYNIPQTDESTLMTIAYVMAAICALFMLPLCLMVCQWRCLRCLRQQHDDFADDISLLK

For `COc1cc(/C=C/C(=O)CC(=O)/C=C/c2ccc(O)c(OC)c2)ccc1O` [curcumin, reference compound], the “inhibitory effect on Aβ production” value in series [1] is recorded as “no inhibitory effect”. As a reminder, the IC50 is the concentration that inhibits the measured activity by half. Usually melting point stands for the temperature, or range, at which the solid turns liquid. Compound `Nc1ccc(O)cc1/C=C/C(=O)CC(=O)/C=C/c1ccc(O)cc1` [CU488, (1E,6E)-1-(2-amino-5-hydroxyphenyl)-7-(4-hydroxyphenyl)hepta-1,6-diene-3,5-dione] came in with a melting point of 186 to 192 °C. The IC50 in series [2] is 7.3 µM. For `COc1ccc([N+](=O)[O-])c(/C=C/C(=O)CC(=O)/C=C/c2ccc(O)cc2)c1` [CU481, (1E,6E)-1-(4-hydroxyphenyl)-7-(5-methoxy-2-nitrophenyl)hepta-1,6-diene-3,5-dione] the same measures were 151 to 155 °C and 1.2 µM. For `COc1cc(/C=C/C(=O)CC(=O)/C=C/c2ccc(O)cc2)ccc1[N+](=O)[O-]` [CU050, (1E,6E)-1-(4-hydroxyphenyl)-7-(3-methoxy-4-nitrophenyl)hepta-1,6-diene-3,5-dione], in that order: 190 to 192 °C and 16 µM. For `Nc1ccc(OCc2ccccc2)cc1/C=C/C(=O)CC(=O)/C=C/c1ccc(O)cc1` [CU489, (1E,6E)-1-(2-amino-5-benzyloxyphenyl)-7-(4-hydroxyphenyl)hepta-1,6-diene-3,5-dione] the same measures were 175 to 179 °C and 5.6 µM. In turn, `O=C(/C=C/c1ccc(O)cc1)CC(=O)/C=C/c1cc(O)ccc1[N+](=O)[O-]` [CU131, (1E,6E)-1-(5-hydroxy-2-nitrophenyl)-7-(4-hydroxyphenyl)hepta-1,6-diene-3,5-dione] showed a melting point of 187 to 194 °C. The IC50 in series [2] came to 0.91 µM. For the compound `O=C(/C=C/c1ccc(O)cc1)CC(=O)/C=C/c1cc(O)ccc1Br` [CU532, (1E,6E)-1-(2-bromo-5-hydroxyphenyl)-7-(4-hydroxyphenyl)hepta-1,6-diene-3,5-dione], the melting point lay in the range of 182 to 186 °C. Moreover, the “amount of Aβ-42 in culture medium” value in series [1] (at 0.3 μM) is listed as “significantly decreased”. Besides, the “amount of Aβ-40 in culture medium” value in series [1] (at 1 μM) is reported as “significantly decreased”. The compound `CN(C)c1ccc(/C=C/C(=O)CC(=O)/C=C/c2ccc3cc[nH]c3c2)c([N+](=O)[O-])c1` [CU592, (1E,6E)-1-(4-dimethylamino-2-nitrophenyl)-7-(1H-indol-6-yl)hepta-1,6-diene-3,5-dione] showed a melting point of 196 to 201 °C. Turning to `O=C(/C=C/c1ccc(O)cc1)CC(=O)/C=C/c1ccccc1-c1cn(Cc2ccccc2)nn1` [CU644, (1E,6E)-1-[2-(1-benzyl-1H-1,2,3-triazol-4-yl)phenyl]-7-(4-hydroxyphenyl)hepta-1,6-diene-3,5-dione], the melting point lay within 103 to 109 °C. Still for that read-out and setting: with `O=C(/C=C/c1cc(O)ccc1Br)CC(=O)/C=C/c1cc(O)ccc1-c1ccccc1` [CU616, (1E,6E)-1-(2-bromo-5-hydroxyphenyl)-7-(4-hydroxybiphenyl-2-yl)hepta-1,6-diene-3,5-dione] the figure was 101 to 104 °C. On the same count and under the same terms, next, `O=C(/C=C/c1ccc2cc[nH]c2c1)CC(=O)/C=C/c1cc(OCc2ccccc2)ccc1[N+](=O)[O-]` [CU588, (1E,6E)-1-(5-benzyloxy-2-nitrophenyl)-7-(1H-indol-6-yl)hepta-1,6-diene-3,5-dione]: 181 to 186 °C; `O=C(/C=C/c1cc(O)ccc1[N+](=O)[O-])CC(=O)CCc1ccc(O)cc1` [CU530, (E)-1-(5-hydroxy-2-nitrophenyl)-7-(4-hydroxyphenyl)hept-1-ene-3,5-dione]: 62 to 70 °C.

Consider `O=C(/C=C/c1ccc2cc[nH]c2c1)CC(=O)/C=C/c1cc(O)ccc1[N+](=O)[O-]` [CU596, (1E,6E)-1-(5-hydroxy-2-nitrophenyl)-7-(1H-indol-6-yl)hepta-1,6-diene-3,5-dione], for which the melting point was 204 to 207 °C. The same measure, in the same setting: with `O=C(/C=C/c1ccc2cc[nH]c2c1)CC(=O)/C=C/c1cc(OCc2ccccc2)ccc1-c1ccccc1` [CU566, (1E,6E)-1-(4-benzyloxybiphenyl-2-yl)-7-(1H-indol-6-yl)hepta-1,6-diene-3,5-dione] the figure was 178 to 183 °C; with `O=C(/C=C/c1ccc(O)cc1)CC(=O)/C=C/c1ccccc1C(F)(F)F` [CU467, (1E,6E)-1-(4-hydroxyphenyl)-7-(2-trifluoromethylphenyl)hepta-1,6-diene-3,5-dione], 181 to 185 °C; with `O=C(/C=C/c1ccc(O)cc1)CC(=O)/C=C/c1ccccc1F` [CU622, (1E,6E)-1-(2-fluorophenyl)-7-(4-hydroxyphenyl)hepta-1,6-diene-3,5-dione], 146 to 150 °C. Same read-out and setting: with `COc1cc(/C=C/C(=O)CC(=O)/C=C/c2ccc(O)cc2)c(Br)cc1O` [CU539, (1E,6E)-1-(2-bromo-4-hydroxy-5-methoxyphenyl)-7-(4-hydroxyphenyl)hepta-1,6-diene-3,5-dione] the figure was 237 to 242 °C; with `CCN(CC)c1ccc(/C=C/C(=O)CC(=O)/C=C/c2ccc(O)cc2)c(OC(=O)c2ccccc2)c1` [CU425, (1E,6E)-1-(2-benzoyloxy-4-diethylaminophenyl)-7-(4-hydroxyphenyl)hepta-1,6-diene-3,5-dione], 212 to 215 °C. On to `O=C(/C=C/c1ccc(O)cc1)CC(=O)/C=C/c1cc(OCc2ccccc2)ccc1[N+](=O)[O-]` [CU475, (1E,6E)-1-(5-benzyloxy-2-nitrophenyl)-7-(4-hydroxyphenyl)hepta-1,6-diene-3,5-dione], for which the melting point is 168 to 172 °C. For the same compound, the IC50 in series [2] worked out at 0.74 µM. Compound `CCOC(=O)c1cn(-c2ccccc2/C=C/C(=O)CC(=O)/C=C/c2ccc(O)cc2)nn1` [CU625, (1E,6E)-1-[2-(4-ethoxycarbonyl-1H-1,2,3-triazol-1-yl)phenyl]-7-(4-hydroxyphenyl)hepta-1,6-diene-3,5-dione] displayed a melting point of 231 to 237 °C.

Values taken from patent US8552220B2, “Therapeutic agent for Alzheimer's disease” (Tokyo Institute of Technology, priority 2008, dated 2013).
